Key:
[1] = test system: NCI-H460 metastatic clone; experiment: Anti-tumoral and antimetastatic activity in vivo, NCI-H460 metastatic clone; design: species or system CD1 nude mice; settings: for antimetastatic effect on spontaneous lung metastases: NCI-H460 metastatic clone injected subcutaneously; for % inhibition of lung metastases / TVI %: acetyl L-carnitine 200 mg/kg po qdx5/wx4w, cisplatin 5 mg/kg iv q7dx4
Experimental: (§1) Anti-tumoral activity in vivo (CD1 Nude mouse) using five different tumoral cell lines.
(§2) The tumors were generated by subcutaneous injection in the right flank of CD1 nude mice of NCI-H460 tumor cells (3×10^6/100 μl/mouse), in 0.1 ml medium Tc199.
(§3) Treatments started when tumors were palpable, 8 mice per group were used.
(§4) Acetyl L-carnitine was administered po (oral administration) at 200 mg/kg according to the schedule qdx5/w (once per day for 5 days per week).
(§5) Tumor volume (TV) was calculated biweekly by measuring the diameter of the tumors with a Vernier caliper according to the formula
(§6) where d and D are the shortest and longest diameters, respectively. The efficacy of the drug treatment was assessed as the tumor volume inhibition according to the formula reported underneath: […]

[2] = test system: tumour mass; settings: WO/2000/06134; ALC 100 mg/kg orally; cited from earlier work
[3] = test system: A2780/Dx multidrug-resistant ovarian tumor cell line; experiment: Anti-proliferative activity in vitro (MTT assay), A2780/Dx; assay type: cell-based; settings: 10 mM, 6 days of treatment, 0.1% FBS
Experimental: (§7) The anti-proliferative activity of acetyl L-carnitine was evaluated in two different NSCLC tumor cell lines (NCI-H460 and NCI-H1650) and on one ovarian tumor cell line (A2780/Dx multidrug-resistant).
(§8) Cells were seeded in 96-well tissue culture plates and treated for three days (NCI-H460 NSCLC) or six days (NCI-H1650 NSCLC and A2780/Dx cells) with acetyl L-carnitine (10 mM in 0.1% FBS). To test the effect of acetyl L-carnitine on cell growth, tumor cells were seeded in 96-well tissue culture plates at approximately 10% confluence and were allowed to attach and recover for at least 24 h. Tumor cells were exposed to treatment protocol for 72 h or 6 days in 0.1% FBS at 37° C., then medium culture (RPMI 1640) was removed and 100 μl/well of medium were added containing 25 μl/well of a solution 5 mg/ml tetrazolium salt (MTT) assay, (final 1 mg/ml). Plates were kept at 37° C. in incubator with 5% CO2 for 2 h for the formation of blue crystals. […] The cell survival was determined as optical density by a Multiskan spectrofluorimeter at 570 nm (Hansen M. B., et al., J. Immunol. Methods, 1989, 119, 203). Percentage of tumor cell inhibition in the presence of 10 mM acetyl L-carnitine was evaluated and compared with that obtained in the absence of acetyl L-carnitine applying the statistical comparison by means of the Mann-Whitney test.

[4] = test system: SJSA-1 (with amplification of mdm2) osteosarcoma cells; experiment: Antiproliferative activity on SJSA-1 osteosarcoma cells (MTT assay); assay type: cell-based
Experimental: The evaluation of antiproliferative activity was carried out by MTT assay.

[5] = test system: NCI-H1650 NSCLC tumor cell line; experiment: Anti-proliferative activity in vitro (MTT assay), NCI-H1650; assay type: cell-based; settings: 10 mM, 6 days of treatment, 0.1% FBS
Experimental: as §7, §8

[6] = test system: NCI-H1650 cell line; experiment: Anti-tumoral activity in vivo, NCI-H1650 subcutaneous tumor; design: species or system CD1 nude mice; settings: acetyl L-carnitine 200 mg/kg po qdx5/wx3w; cisplatin 4 mg/kg ip q4dx6
Experimental: as §1
The tumors were generated by subcutaneous injection in the right flank of CD1 nude mice of NCI-H1650 tumor cells (5×10^6/200 μl/mouse) in suspension in 0.1 ml medium Tc199+0.1 ml Matrigel.
as §3, §4, §5, §6

[7] = test system: NCI-H460 NSCLC tumor cell line; experiment: Anti-proliferative activity in vitro (MTT assay), NCI-H460; assay type: cell-based; settings: 10 mM, 72 h of treatment, 0.1% FBS
Experimental: as §7, §8

[8] = test system: Human A549 NSCLC cell line; experiment: Anti-tumoral activity in vivo, A549 subcutaneous tumor; design: species or system CD1 nude mice; settings: acetyl L-carnitine 200 mg/kg po qdx5/wx4w, cisplatin 4 mg/kg ip q4dx6
Experimental: as §1
The tumors were generated by subcutaneous injection in the right flank of CD1 nude mice of A549 tumor cells (3×10^6/100 μl/mouse) in 0.1 ml medium Tc199.
as §3, §4, §5, §6

[9] = test system: A2780 ADR cell line; experiment: Anti-tumoral activity in vivo, A2780 ADR subcutaneous tumor; design: species or system CD1 nude mice; settings: acetyl L-carnitine 200 mg/kg po qdx5/wx3w, doxorubicin 6 mg/kg iv q7dx3
Experimental: as §1
The tumors were generated by subcutaneous injection in the right flank of CD1 nude mice of A2780 ADR tumor cells (5×10^6/100 μl/mouse) in 0.1 ml medium Tc199.
as §3, §4
The reference compound doxorubicin was delivered intravenously according to the schedule q7dx3, at a dose of 6 mg/kg.
as §5, §6

[10] = test system: NCI-H460 cell line; experiment: Anti-tumoral activity in vivo, NCI-H460 subcutaneous tumor; design: species or system CD1 nude mice; settings: acetyl L-carnitine 200 mg/kg po qdx5/wx4w; cisplatin 4 mg/kg ip q4dx5
Experimental: as §1, §2, §3, §4, §5, §6

[11] = test system: NCI-H460 non-small cell lung carcinoma; experiment: Antitumor activity of L-carnitine in combination with cisplatin against NCI-H460; assay type: in vivo
Experimental: Treatments started three days after tumor injection. To evaluate the antitumor activity, tumor diameters were measured with a Vernier caliper. […] When tumors reached a volume of 1-2 cm^3, mice were sacrificed by cervical dislocation. Body weight recording was carried out through the study and mortality was noted.

CC(=O)O[C@H](CC(=O)[O-])C[N+](C)(C)C [Acetyl L-carnitine, acetyl L-carnitine]
antimetastatic effect on spontaneous lung metastases [1]: statistically significant antimetastatic effect | % inhibition of lung metastases [1]: 50% | TVI % [1]: 34 ± 5% | effect on tumour growth [2]: no effect on tumour growth | Tumor cell inhibition % [3]: 29% | Absorbance ± SE at 570 nm ([3]; control 331 ± 18): 234 ± 16 | Tumor cell inhibition % ([4]; 10 mM, 72 h of exposure followed by 72 h of recovery, 0.1% FBS, P 0.0037 vs control): 24% | antiproliferative activity compared with cisplatin ([4]; 72 h of exposure, medium containing 0.1% FBS): statistically significant more active than cisplatin | Tumor cell inhibition % ([5]; P <0.001): 41% | Absorbance ± SE at 570 nm ([5]; control 484 ± 25): 285 ± 11 | TVI % [6]: 19 ± 4% | Tumor cell inhibition % ([7]; P <0.001): 32% | Absorbance ± SE at 570 nm ([7]; control 745 ± 18): 509 ± 8 | TVI % [8]: 27 ± 3% | TVI % ([8]; listed as acetyl L-carnitine): 27% | TVI % [9]: 28 ± 11% | TVI % ([9]; listed as acetyl L-carnitine): 28% | TVI % ± SE [10]: 40 ± 6%

N.N.[Cl][Pt][Cl] [Cisplatin, cisplatin, reference compound]
antimetastatic effect on spontaneous lung metastases [1]: ineffective | % inhibition of lung metastases [1]: 0% | TVI % [1]: 41 ± 5% | TVI % [6]: 23 ± 3% | TVI % [8]: 49 ± 13% | TVI % ([8]; listed as cisplatin): 49% | TVI % [9]: 60% | TVI % ± SE [10]: 41 ± 5% | TVI % ± SE +32 ([11]; day +32, cisplatin 4 mg/kg ip q4d/wx3w, L-carnitine 200 mg/kg po qdx5/wx3w): 80 ± 21%

COc1cccc2c1C(=O)c1c(O)c3c(c(O)c1C2=O)C[C@@](O)(C(=O)CO)C[C@@H]3O[C@H]1C[C@H](N)[C@H](O)[C@H](C)O1 [Doxorubicin, doxorubicin, reference compound]
TVI % [9]: 60 ± 11%

C[N+](C)(C)C[C@H](O)CC(=O)[O-] [L-carnitine]
potentiation of the cytotoxic activity of cisplatin ([11]; L-carnitine 200 mg/mice/day given chronically): not able to potentiate the cytotoxic activity of cisplatin

CC(=O)O[C@H]1C(=O)[C@@]2(C)[C@H]([C@H](OC(=O)c3ccccc3)[C@]3(O)C[C@H](OC(=O)[C@H](O)[C@@H](NC(=O)c4ccccc4)c4ccccc4)C(C)=C1C3(C)C)[C@]1(OC(C)=O)CO[C@@H]1C[C@@H]2O [Paclitaxel, paclitaxel, reference compound]
inhibition of tumour growth (TVI) [2]: 88%

CC(=O)O[C@H](CC(=O)[O-])C[N+](C)(C)C [acetyl L-carnitine (ALC)]
effect on the formation of lung metastases [2]: significant inhibitory effect

Reference: patent US20120208883A1, “TREATMENT OF ONCOLOGICAL DISEASES” (priority 2008, published 2012)
